Data on five compounds can be found in publication PMC6270011, “Design and Synthesis of Arylthiophene-2-Carbaldehydes via Suzuki-Miyaura Reactions and Their Biological Evaluation” (Molecules, 2013).

Values after ≈ are worked out from the molar mass of the structure shown. Read-outs that look alike come from different tables or passages of the source.

For data set [1], the target named is urease enzyme (Canavalia ensiformis, UniProt P07374).
A short description of data set [2]: Nitric oxide (NO) scavenging assay. Type of data set: biochemical. An excerpt: Nitric oxide (NO) is a free radical causing inflammatory disorders and cancer in the human body when sodium nitroprusside decomposes to produce nitric oxide. The antioxidant activity of various thiophene derivatives has been reported in the literature and it has also been observed that compounds with high antioxidant activity served as antitumor agents. The newly synthesized compounds reacted directly with nitric oxide and inhibited nitrite formation in an excellent way.
The reaction mixtures comprising sample solution (2 µL), phosphate buffer (17 µL) and sodium nitroprusside (20 µL) were incubated at 37 °C for 2 h in well plates. Then Griess reagent (20 µL, 0.3% sulphanilic acid in glacial acetic acid + 0.1% naphthylethylenediamine (NED): equal volumes of both solutions mixed just before use) was added to each well plate and the mixture kept at room temperature for 20 min to develop the color. The absorbance was measured at 528 nm by using an ELISA reader. The results were processed using Gen 5 software. All the reactions were performed in triplicate. Positive control (containing known antioxidant) and control (containing all samples) were run in parallel. Negative control was used to calibrate the instrument. The % age antioxidant activity was determined by using the following formula: % antioxidant activity = [(Absorbance of control − absorbance of sample)/(Absorbance of control)] × 100

Data set [3] relates to human red blood cells (erythrocytes). Type of data set: cell-based. The following applies: for Haemolytic activity, percentage of lysis (Average ± SD): human erythrocytes, 37 °C, 35 min. On the procedure: Three mL of freshly obtained human blood was placed in heparinized tubes to avoid coagulation, gently mixed and poured into a sterile 15 mL Falcon tube and centrifuged for 5 min at 1,000 ×g. The supernatant was discarded and red blood cells were washed three times with chilled (4 °C) sterile isotonic phosphate buffer saline pH 7.4 (5 mL). Erythrocytes (10^8 cells/mL) were maintained for each assay by dilution with phosphate buffer saline. Erythrocytes were counted on a heamacytometer. Twenty µL of each compound was mixed with red blood cells suspension (180 μL) separately. The samples were incubated at 37 °C for 35 min. The samples were placed on ice for 5 min and then agitated at 1,000 ×g for 5 min. Supernatant (100 µL) were taken from each tube and diluted 10 times with chilled (4 °C) phosphate buffered saline. Triton X-100 (0.1% v/v) was taken as a positive control and PBS was negative control and then subjected to the same process. […] The percentage RBSs lyses for each sample was calculated.

Data set [4] has as its system Gram-negative bacteria. Kind of data set: Antibacterial activity against Gram-negative bacteria (strain not named). Type of data set: cell-based.
Data set [5] deals with Escherichia coli. Kind of data set: Antibacterial activity (disc / inhibition zone) against Escherichia coli. The following applies: for zone of inhibition at 25 µg/mL / zone of inhibition at 50 µg/mL: read-out: Inhibition zone, E.coli; for IC50: read-out: IC50 against Escherichia coli.
Data set [6] has as its system Salmonella typhi. Kind of data set: Antibacterial activity (disc / inhibition zone) against Salmonella typhi. The following applies: Salmonella enterica; for zone of inhibition at 25 µg/mL / zone of inhibition at 50 µg/mL: read-out: Inhibition zone, S. typhi.
Data set [7] deals with Bacillus subtilis. Kind of data set: Antibacterial activity (disc / inhibition zone) against Bacillus subtilis. Particulars: read-out: Inhibition zone, B. subtilis.
The subject of data set [8] is Shigella dysenteriae. Description: Antibacterial activity (disc / inhibition zone) against Shigella dysenteriae. The following applies: read-out: Inhibition zone, S. dysenteriae.
Data set [9] deals with Staphylococcus aureus. Kind of data set: Antibacterial activity (disc / inhibition zone) against Staphylococcus aureus. Particulars: for zone of inhibition at 25 µg/mL / zone of inhibition at 50 µg/mL: read-out: Inhibition zone, S. aureus.
Data set [10] deals with Pseudomonas aeruginosa. Kind of data set: Antibacterial activity (disc / inhibition zone) against Pseudomonas aeruginosa. Particulars: for zone of inhibition at 25 µg/mL / zone of inhibition at 50 µg/mL: read-out: Inhibition zone, P. aeruginosa.
Where [11] appears, read: 25 µg/mL, read-out: % Activity at 25 µg (NO scavenging).
Where [12] appears, read: 50 µg/mL, read-out: % Activity at 50 µg (NO scavenging).
Setting [13] is: 100 µg/mL, read-out: % Activity at 100 µg (NO scavenging).

Sequence of urease enzyme (P07374 whole entry, looked up): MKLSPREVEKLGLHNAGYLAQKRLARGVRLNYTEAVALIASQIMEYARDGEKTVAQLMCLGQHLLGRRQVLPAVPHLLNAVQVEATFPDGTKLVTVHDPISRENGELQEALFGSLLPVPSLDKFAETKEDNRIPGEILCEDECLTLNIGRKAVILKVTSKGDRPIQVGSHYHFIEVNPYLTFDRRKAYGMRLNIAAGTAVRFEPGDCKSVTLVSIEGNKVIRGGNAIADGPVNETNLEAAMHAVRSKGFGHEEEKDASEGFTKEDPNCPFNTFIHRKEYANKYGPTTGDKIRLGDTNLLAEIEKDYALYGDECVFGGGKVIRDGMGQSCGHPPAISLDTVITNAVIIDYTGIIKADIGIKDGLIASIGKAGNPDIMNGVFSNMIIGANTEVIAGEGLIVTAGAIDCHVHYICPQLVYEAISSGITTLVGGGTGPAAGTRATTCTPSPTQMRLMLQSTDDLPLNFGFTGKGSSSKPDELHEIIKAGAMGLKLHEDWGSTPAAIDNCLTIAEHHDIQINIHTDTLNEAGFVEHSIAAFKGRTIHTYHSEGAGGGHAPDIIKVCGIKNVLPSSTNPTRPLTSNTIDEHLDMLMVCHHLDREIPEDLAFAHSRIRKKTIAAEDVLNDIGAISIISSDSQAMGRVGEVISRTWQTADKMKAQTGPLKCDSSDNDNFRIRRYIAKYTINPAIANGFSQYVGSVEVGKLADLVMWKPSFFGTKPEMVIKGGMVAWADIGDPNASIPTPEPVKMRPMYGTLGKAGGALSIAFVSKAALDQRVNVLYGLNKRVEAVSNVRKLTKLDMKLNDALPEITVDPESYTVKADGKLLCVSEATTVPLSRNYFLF

Turning to `NC(N)=S` [Thiourea, thiourea, reference compound], the “IC50 (urease inhibition)” value in data set [1] is 27.5 µg/mL (≈ 361 µM). Further, the “%age Activity at 25 μg (urease inhibition)” value in [1] (25 µg/mL) is 47 ± 0.007%. The “%age Activity at 50 μg (urease inhibition)” value in [1] (50 µg/mL) turned out to be 77 ± 0.015%.

For orientation: IC50 means the midpoint of a concentration-inhibition curve. Broadly, the melting point is the temperature, or range, at which the solid turns liquid. The compound `Cc1cc(C)cc(-c2csc(C=O)c2)c1` [2g, 4-(3,5-Dimethylphenyl)thiophene-2-carbaldehyde] came in with a melting point of 71 to 73 °C. For the same compound, the inhibition in [2] (setting [11]) was found to be 13 ± 0.002%. In data set [2] (setting [12]), the inhibition was determined as 28 ± 0.007%. The inhibition in [2] (setting [13]) came to 43 ± 0.002%. Also, the “Haemolytic activity, percentage of lysis (Average ± SD)” value in data set [3] was 4.525 ± 0.075%. Moreover, in [4], the midpoint of inhibition, the IC50, lay at 45.2 µg/mL (≈ 209 µM). In [5], the zone of inhibition at 25 µg/mL amounted to 22.5 ± 0.11 mm and the zone of inhibition at 50 µg/mL is 44.5 ± 0.19 mm. For the same compound, in data set [6], the zone of inhibition at 25 µg/mL worked out at 32.2 ± 0.11 mm and the zone of inhibition at 50 µg/mL is 61 ± 0.16 mm. Besides, in [7], the zone of inhibition at 25 µg/mL is 36 ± 0.08 mm and the zone of inhibition at 50 µg/mL was determined as 56 ± 0.24 mm. In [8], the zone of inhibition at 25 µg/mL amounted to 32 ± 0.01 mm and the zone of inhibition at 50 µg/mL came out at 59 ± 0.44 mm. Moreover, in data set [9], the zone of inhibition at 25 µg/mL is 27 ± 0.08 mm and the zone of inhibition at 50 µg/mL came to 59 ± 0.44 mm. In data set [10], the zone of inhibition at 25 µg/mL was found to be 25 ± 0.06 mm and the zone of inhibition at 50 µg/mL is 56 ± 0.04 mm.

On to `Cc1ccc(-c2csc(C=O)c2)s1` [2j, 5-Methyl-2,3-bisthiophene-5-carbaldehyde], for which the melting point fell in the range of 218 to 220 °C. Also, the “IC50 (NO scavenging)” value in [2] amounted to 49.3 µg/mL (≈ 237 µM). The inhibition in [2] (setting [11]) turned out to be 15 ± 0.021%. Moreover, the inhibition in [2] (setting [12]) was found to be 50 ± 0.024%. In [2] (setting [13]), the inhibition turned out to be 65 ± 0.013%. In addition, the “Haemolytic activity, percentage of lysis (Average ± SD)” value in [3] was 4.135 ± 0.095%. Besides, in data set [5], the IC50 was 40 µg/mL (≈ 192 µM), the zone of inhibition at 25 µg/mL was determined as 26 ± 0.03 mm and the zone of inhibition at 50 µg/mL came to 66 ± 0.43 mm. Also, in data set [6] (read-out: IC50 against Salmonella typhi), the IC50 was determined as 37.4 µg/mL (≈ 180 µM). Besides, in data set [6], the zone of inhibition at 25 µg/mL turned out to be 29 ± 0.1 mm and the zone of inhibition at 50 µg/mL was determined as 63 ± 0.1 mm. In data set [7], the zone of inhibition at 25 µg/mL amounted to 27.1 ± 0.01 mm and the zone of inhibition at 50 µg/mL was 60 ± 0.05 mm. Also, in [8], the zone of inhibition at 25 µg/mL is 35 ± 0.2 mm and the zone of inhibition at 50 µg/mL was 65 ± 0.09 mm. In addition, the IC50 in data set [9] (read-out: IC50 against Staphylococcus aureus) was 37.4 µg/mL (≈ 180 µM). Besides, in data set [9], the zone of inhibition at 25 µg/mL amounted to 35.2 ± 0.01 mm and the zone of inhibition at 50 µg/mL was determined as 65 ± 0.09 mm. In addition, in data set [10], the zone of inhibition at 25 µg/mL amounted to 36 ± 0.16 mm and the zone of inhibition at 50 µg/mL was 69 ± 0.16 mm.

`N#Cc1cc(-c2csc(C=O)c2)cc(C(F)(F)F)c1` [2d, 3-(5-Formylthiophene-3-yl)-5-(trifloromethyl)benzonitrile] yielded a melting point of 252 to 254 °C. In data set [2], the “IC50 (NO scavenging)” value is reported as 45.6 µg/mL (≈ 162 µM). Besides, the inhibition in [2] (setting [11]) is 12 ± 0.025%. In addition, the inhibition in data set [2] (setting [12]) was determined as 58 ± 0.01%. Also, in data set [2] (setting [13]), the inhibition is 73 ± 0.0028%. In addition, in data set [3], the “Haemolytic activity, in words” value was “lowest haemolytic property” and the “Haemolytic activity, percentage of lysis (Average ± SD)” value was found to be 3.306 ± 0.058%. For the same compound, in data set [5], the zone of inhibition at 25 µg/mL was found to be 32.5 ± 0.12 mm and the zone of inhibition at 50 µg/mL came out at 40.5 ± 0.19 mm. Besides, in [6], the zone of inhibition at 25 µg/mL came to 30 ± 0.15 mm and the zone of inhibition at 50 µg/mL was determined as 64 ± 0.05 mm. Moreover, in [7], the zone of inhibition at 25 µg/mL came out at 28.3 ± 0.75 mm and the zone of inhibition at 50 µg/mL is 58 ± 0.35 mm. In addition, in [8], the zone of inhibition at 25 µg/mL came out at 35 ± 0.15 mm and the zone of inhibition at 50 µg/mL is 63 ± 0.31 mm. Also, in [9], the zone of inhibition at 25 µg/mL worked out at 33 ± 0.01 mm and the zone of inhibition at 50 µg/mL is 63 ± 0.31 mm. Further, in data set [10] (read-out: IC50 against Pseudomonas aeruginosa), the IC50 is 29.7 µg/mL (≈ 106 µM). In data set [10], the zone of inhibition at 25 µg/mL turned out to be 46 ± 0.02 mm and the zone of inhibition at 50 µg/mL was determined as 67 ± 0.01 mm.

`Cc1ccc(-c2csc(C=O)c2)cc1` [2e, 4-p-Tolylthiophene-2-carbaldehyde] had a melting point of 58 to 60 °C. In [2] (setting [11]), the inhibition is -15 ± 0.04%. In addition, the inhibition in [2] (setting [12]) is -12 ± 0.037%. Also, the inhibition in [2] (setting [13]) was 3 ± 0.0014%. In data set [3], the “Haemolytic activity, in words” value is given as “lowest haemolytic property” and the “Haemolytic activity, percentage of lysis (Average ± SD)” value is listed as 3.356 ± 0.075%. Also, in data set [5], the IC50 was 40 µg/mL (≈ 198 µM), the zone of inhibition at 25 µg/mL is 32 ± 0.05 mm and the zone of inhibition at 50 µg/mL was determined as 62 ± 0.01 mm. Also, in [6], the zone of inhibition at 25 µg/mL was determined as 22.2 ± 0.14 mm and the zone of inhibition at 50 µg/mL came to 53 ± 0.12 mm. In addition, in data set [7], the zone of inhibition at 25 µg/mL came out at 22.4 ± 0.13 mm and the zone of inhibition at 50 µg/mL was determined as 54 ± 0.17 mm. Moreover, in data set [8], the zone of inhibition at 25 µg/mL worked out at 41 ± 0.05 mm and the zone of inhibition at 50 µg/mL turned out to be 58 ± 0.01 mm. In addition, in [9], the zone of inhibition at 25 µg/mL is 28 ± 0.2 mm and the zone of inhibition at 50 µg/mL was 58 ± 0.01 mm. Moreover, in [10], the zone of inhibition at 25 µg/mL worked out at 44 ± 0.02 mm and the zone of inhibition at 50 µg/mL worked out at 60 ± 0.03 mm.
